Patent US20250177324A1, “A[…], AND PREPARATION METHOD THEREFOR AND USE THEREOF” (SHANGHAI ZHIGEN PHARMACEUTICAL & TECHNOLOGY CO. LTD., priority 2022, published 2025)
Structures can show the parent of a compound that is named as a salt.

Assay: Solid-state chemical stability under different storage conditions (liquid chromatography)
Type: physicochemical
Settings: for Stability of solid state compound, 0 Days (%): liquid chromatography
Description: The HPLC conditions were as follows:
Configuration of test solution: appropriate amount of sample was dissolved and diluted with a diluent (0.03 mol/L phosphate buffer-acetonitrile (80:20)) to make 1 mg/mL solution.
Chromatographic conditions: according to the high performance liquid chromatography (Chinese Pharmacopoeia 2020 version of the four general 0512) test, using octadecyl-bonded silica gel (Agilent Eclipse Plus C18, 4.6 mm*250 mm, 5.0 μm, P/N for 959990-902 or a chromatographic column with equivalent performance) as a filler; 0.03 mol/L phosphate buffer (4.08 g of potassium dihydrogen phosphate was dissolved in 1000 ml of water and shaken well) was used as mobile phase A and acetonitrile as mobile phase B at a flow rate of 1 ml/min, the column temperature was 30° C., the detection wavelength was 220 nm, the injection volume was 10 ul, and the sample plate was controlled to 8° C. and running for 65 min. Gradient elution was performed according to the following table: […]
Configuration of test solution: appropriate amount of the product was dissolved and diluted with a diluent (0.1% phosphoric acid-acetonitrile (80:20)) to make 1 mg/mL solution.
Chromatographic conditions: according to the high performance liquid chromatography (Chinese Pharmacopoeia 2020 version of the four general 0512) test, using octadecyl bonded silica gel (Agilent Eclipse Plus C18, 4.6 mm*250 mm, 5.0 μm, P/N 959990-902 or a chromatographic column with equivalent performance) as a filler; 0.1% phosphate buffer (1 ml of phosphoric acid in 1000 ml of water and shake well) as mobile phase A, acetonitrile as mobile phase B, flow rate of 1 ml/min, column temperature of 30° C., detection wavelength of 220 nm, injection volume of 10 ul, running for 48 minutes. Gradient elution was performed according to the following table: […]

SMILES | Stability of solid state compound, 0 Days (%) (40° C., 75% RH) | Stability of solid state compound, 5 Days (%) (40° C., 75% RH) | Stability of solid state compound, 30 Days (%) (40° C., 75% RH) | Stability of solid state compound, 0 Days (%) (25° C., 60% RH) | Stability of solid state compound, 10 Days (%) (25° C., 60% RH) | Stability of solid state compound, 30 Days (%) (25° C., 60% RH) | Stability of solid state compound, 10 Days (%) (40° C., 75% RH) | Stability of solid state compound, 60 Days (%) (40° C., 75% RH, 60 days)
CN[C@@]1(c2ccc(C(F)(F)F)cc2)CCC[C@@H](O)C1=O.Cl [Comparative compound 8, reference compound] | 98.4% | 73.0% | – | – | – | – | – | –
CC1(O)CCCC(N)(c2cccc(OC(F)(F)F)c2F)C1=O (centres unmarked) [Compound 43, 2-amino-2-(2-fluoro-3-(trifluoromethoxy)phenyl)-6-hydroxy-6-methylcyclohexan-1-one hydrochloride] | 98.73% | – | 98.75% | – | – | – | – | –
CCN[C@@]1(c2ccc(C(F)(F)F)cc2)CCC[C@@H](O)C1=O.Cl [Comparative compound 9, reference compound] | – | – | – | 98.2% | 96.8% | 61% | – | –
Cl.NC1(c2cccc(F)c2F)CCCC(O)C1=O (centres unmarked) [Comparative compound 12, reference compound] | 97.16% | – | 94.59% | – | – | – | – | –
CNC1(c2cccc(OC(F)(F)F)c2)CCCC(O)C1=O.Cl (centres unmarked) [Comparative compound 11, reference compound] | 98.15% | 87.8% | – | – | – | – | 75.44% | –
CNC1(c2cccc(C#N)c2)CCCC(C)(O)C1=O.Cl (centres unmarked) [Compound 63, 3-(3-hydroxy-3-methyl-1-methylamino-2-oxocyclohexyl)benzonitrile hydrochloride] | 99.67% | 99.66% | 99.66% | – | – | – | 99.66% | –
CNC1(c2c(F)cc(F)cc2F)CCCC(C)(O)C1=O.Cl (centres unmarked) [Compound 58, 2-hydroxy-2-methyl-6-methylamino-6-(2,4,6-trifluorotoluene)cyclohexan-1-one hydrochloride] | 99.34% | – | 99.14% | – | – | – | 99.12% | –
CC1(O)CCCC(N)(c2c(F)cc(F)cc2F)C1=O (centres unmarked) [Compound 44, 2-amino-6-hydroxy-6-methyl-2-(2,4,6-trifluorotoluene)cyclohexan-1-one hydrochloride] | 98.45% | 98.53% | 98.35% | – | – | – | – | –
Cl.N[C@]1(c2ccc(C(F)(F)F)cc2)CCC[C@H](O)C1=O [Comparative compound 2, reference compound] | 99.48% | – | 94.26% | – | – | – | 97.11% | 89.97%
CN(C)[C@@]1(c2ccc(C(F)(F)F)cc2)CCC[C@@](C)(O)C1=O.Cl [Compound 72, (2R,6R)-2-dimethylamino-6-hydroxy-6-methyl-2-(4-(trifluoromethyl)phenyl)cyclohexan-1-one hydrochloride] | 99.69% | 99.66% | 99.61% | – | – | – | 99.62% | –
CC(=O)N[C@@]1(c2ccc(C(F)(F)F)cc2)CCC[C@@H](O)C1=O [Comparative compound 10, reference compound] | – | – | – | 99.77% | 99.69% | 97.51% | – | –
CN[C@@]1(c2cccc(C#N)c2)CCC[C@](C)(O)C1=O.Cl [Compound 64, 3-((1R, 3S)-3-hydroxy-3-methyl-1-methylamino-2-oxocyclohexyl)benzonitrile hydrochloride] | 99.88% | 99.88% | 99.85% | – | – | – | 99.89% | –
CNC1(c2cccc(OC(F)(F)F)c2)CCCC(C)(O)C1=O.Cl (centres unmarked) [Compound 67, 2-hydroxy-2-methyl-6-methylamino-6-(3-(trifluoromethoxy)phenyl)cyclohexan-1-one hydrochloride] | 99.82% | – | 99.57% | – | – | – | 99.73% | –
CN[C@@]1(c2ccccc2Cl)CCC[C@@](C)(O)C1=O.Cl [Compound 70, (2R,6R)-2-(2-chlorophenyl)-6-hydroxy-6-methyl-2-methylaminocyclohexan-1-one hydrochloride] | 97.84% | – | 97.82% | – | – | – | 97.84% | –
Cl.NC1(c2c(F)cc(F)cc2F)CCCC(O)C1=O (centres unmarked) [Comparative compound 13, reference compound] | 98.31% | – | 96.04% | – | – | – | 97.05% | –
CC(=O)N[C@@]1(c2ccc(C(F)(F)F)cc2)CCC[C@](C)(O)C1=O [Compound 37, N-((1R,3S)-3-hydroxy-3-methyl-2-oxo-1-(4-(trifluoromethyl)phenyl)cyclohexyl)acetamide] | – | – | – | 99.69% | 99.65% | 99.69% | – | –
Cl.N#Cc1cccc(C2(N)CCCC(O)C2=O)c1 (centres unmarked) [Comparative compound 7, reference compound] | 98.1% | 87.5% | – | – | – | – | – | –
Cl.NC1(c2cccc(OC(F)(F)F)c2F)CCCC(O)C1=O (centres unmarked) [Comparative compound 14, reference compound] | 98.58% | – | 93.96% | – | – | – | – | –
CC1(O)CCCC(N)(c2cccc(F)c2F)C1=O.Cl (centres unmarked) [Compound 48, 2-amino-2-(2,3-difluorophenyl)-6-hydroxy-6-methylcyclohexan-1-one hydrochloride] | 99.25% | 99.28% | 99.17% | – | – | – | 99.28% | –
CC1(O)CCCC(N)(c2cccc(C#N)c2)C1=O.Cl (centres unmarked) [Compound 47, 3-(1-amino-3-hydroxy-3-methyl-2-oxocyclohexyl)benzonitrile hydrochloride] | 98.89% | 98.86% | 98.86% | – | – | – | – | –
CNC1(c2cccc(OC(F)(F)F)c2F)CCCC(C)(O)C1=O.Cl (centres unmarked) [Compound 56, 2-(2-fluoro-3-(trifluoromethoxy)phenyl)-6-hydroxy-6-methyl-2-(methylamino)cyclohexan-1-one hydrochloride] | 99.61% | – | 99.50% | – | – | – | – | –
CN[C@@]1(c2ccccc2Cl)CCC[C@](C)(O)C1=O.Cl [Compound 69, (2R,6S)-2-(2-chlorophenyl)-6-hydroxy-6-methyl-2-methylaminocyclohexan-1-one hydrochloride] | 98.36% | – | 98.34% | – | – | – | 98.43% | –
CN[C@]1(c2ccc(C(F)(F)F)cc2)CCC[C@@](C)(O)C1=O.Cl [Compound 75, (2R,6S)-2-hydroxy-2-methyl-6-methylamino-6-(4-(trifluoromethyl)phenyl)cyclohexan-1-one hydrochloride] | 99.85% | – | 99.77% | – | – | – | 99.78% | –
